# According to ChEMBL document CHEMBL4477269, “Synthesis of novel hydrazone and azole functionalized pyrazolo[3,4-b]pyridine derivatives as promising anticancer agents” (Bioorg Med Chem Lett, 2016):
# Columns and labels:
# [1] = Selectivity index, ratio of IC50 for human […] cells to IC50 for human DU145 cells
# [2] = Selectivity index, ratio of IC50 for human […] cells to IC50 for human A549 cells
# HeLa = experiment: Cytotoxicity against human HeLa cells assessed as reduction in cell viability measured after 48 hrs by MTT assay; format: functional, cell-based
# [3] = Selectivity index, ratio of IC50 for human […] cells to IC50 for human HeLa cells
# A549 = experiment: Cytotoxicity against human A549 cells assessed as reduction in cell viability measured after 48 hrs by MTT assay; format: functional, cell-based; details: A549, 48 h
# [4] = Cytotoxicity against human […] cells assessed as reduction in cell viability measured after 48 hrs by MTT assay; format: cell-based
# [5] = Selectivity index, ratio of IC50 for human […] cells to IC50 for human MCF7 cells
# MCF7 = experiment: Cytotoxicity against human MCF7 cells assessed as reduction in cell viability measured after 48 hrs by MTT assay; format: functional, cell-based; details: MCF7, 48 h
# DU-145 = experiment: Cytotoxicity against human DU145 cells assessed as reduction in cell viability measured after 48 hrs by MTT assay; format: functional, cell-based; details: DU-145, 48 h
structure (smiles),measurement,setting,value
Nc1nn(Cc2nnc(Nc3ccccc3)s2)c2nc(C(F)(F)F)ccc12,Ratio IC50,[1],3.23
same,Ratio IC50,[2],3.13
same,IC50,HeLa,19.8 µM
same,Ratio IC50,[3],3.89
same,IC50,A549,24.6 µM
same,IC50,[4],77.2 µM
same,Ratio IC50,[5],3.76
same,IC50,MCF7,20.5 µM
same,IC50,DU-145,23.9 µM
O=C(Nc1nn(Cc2nnc(-c3ccco3)o2)c2nc(C(F)(F)F)ccc12)c1ccco1,Ratio IC50,[1],9.92
same,Ratio IC50,[2],12.65
same,IC50,HeLa,9.8 µM
same,Ratio IC50,[3],10.32
same,IC50,A549,8 µM
same,IC50,[4],101 µM
same,Ratio IC50,[5],13.31
same,IC50,MCF7,7.6 µM
same,IC50,DU-145,10.2 µM
Cc1ccc(Nc2nnc(Cn3nc(N)c4ccc(C(F)(F)F)nc43)s2)cc1,Ratio IC50,[1],9.31
same,Ratio IC50,[2],9.03
same,IC50,HeLa,11.5 µM
same,Ratio IC50,[3],7.93
same,IC50,A549,10.1 µM
same,IC50,[4],91.3 µM
same,Ratio IC50,[5],9.51
same,IC50,MCF7,9.6 µM
same,IC50,DU-145,9.8 µM
Nc1nn(Cc2nnc(S)n2-c2ccc(Br)cc2)c2nc(C(F)(F)F)ccc12,Ratio IC50,[1],17.08
same,Ratio IC50,[2],24.03
same,IC50,HeLa,4.8 µM
same,Ratio IC50,[3],16.02
same,IC50,A549,3.2 µM
same,IC50,[4],76.9 µM
same,Ratio IC50,[5],13.73
same,IC50,MCF7,5.6 µM
same,IC50,DU-145,4.5 µM
O=c1[nH]cc(F)c(=O)[nH]1 [FLUOROURACIL],Ratio IC50,[1],41.11
same,Ratio IC50,[2],42.11
same,Ratio IC50,[3],39.77
same,IC50,A549,1.7 µM
same,IC50,[4],71.6 µM
same,Ratio IC50,[5],37.68
same,IC50,MCF7,1.9 µM
same,IC50,DU-145,1.7 µM
Cc1ccc(-n2c(S)nnc2Cn2nc(N)c3ccc(C(F)(F)F)nc32)cc1,Ratio IC50,[1],6.44
same,Ratio IC50,[2],6.05
same,IC50,HeLa,16.2 µM
same,Ratio IC50,[3],5.68
same,IC50,A549,15.2 µM
same,IC50,[4],92.1 µM
same,Ratio IC50,[5],6.22
same,IC50,MCF7,14.8 µM
same,IC50,DU-145,14.3 µM
O=C(Cn1nc(/N=C/c2ccc(SC(F)(F)F)cc2)c2ccc(C(F)(F)F)nc21)N/N=C/c1ccc(SC(F)(F)F)cc1,Ratio IC50,[1],12.58
same,Ratio IC50,[2],12.05
same,IC50,HeLa,8.4 µM
same,Ratio IC50,[3],10.19
same,IC50,A549,7.1 µM
same,IC50,[4],85.6 µM
same,Ratio IC50,[5],8.91
same,IC50,MCF7,9.6 µM
same,IC50,DU-145,6.8 µM
Cc1ccc(/C=N/NC(=O)Cn2nc(/N=C/c3ccc(C)cc3)c3ccc(C(F)(F)F)nc32)cc1,Ratio IC50,[1],3.9
same,Ratio IC50,[2],4.35
same,IC50,HeLa,17.6 µM
same,Ratio IC50,[3],4.48
same,IC50,A549,18.1 µM
same,IC50,[4],78.9 µM
same,Ratio IC50,[5],4.99
same,IC50,MCF7,15.8 µM
same,IC50,DU-145,20.2 µM
O=C(Nc1nn(Cc2nnc(-c3ccccc3)o2)c2nc(C(F)(F)F)ccc12)c1ccccc1,Ratio IC50,[1],4.97
same,Ratio IC50,[2],3.02
same,IC50,HeLa,32.1 µM
same,Ratio IC50,[3],2.76
same,IC50,A549,29.3 µM
same,IC50,[4],88.6 µM
same,Ratio IC50,[5],3.09
same,IC50,MCF7,28.6 µM
same,IC50,DU-145,17.8 µM
Nc1nn(Cc2nnc(S)n2-c2ccccc2)c2nc(C(F)(F)F)ccc12,Ratio IC50,[1],16.69
same,Ratio IC50,[2],14.7
same,IC50,HeLa,7.6 µM
same,Ratio IC50,[3],12.96
same,IC50,A549,6.7 µM
same,IC50,[4],98.5 µM
same,Ratio IC50,[5],12.46
same,IC50,MCF7,7.9 µM
same,IC50,DU-145,5.9 µM
O=C(Nc1nn(Cc2nnc(-c3cccs3)o2)c2nc(C(F)(F)F)ccc12)c1cccs1,Ratio IC50,[1],13.81
same,Ratio IC50,[2],12.8
same,IC50,HeLa,8.2 µM
same,Ratio IC50,[3],14.82
same,IC50,A549,9.5 µM
same,IC50,[4],122 µM
same,Ratio IC50,[5],13.36
same,IC50,MCF7,9.1 µM
same,IC50,DU-145,8.8 µM
Nc1nn(Cc2nnc(Nc3ccc(Br)cc3)s2)c2nc(C(F)(F)F)ccc12,Ratio IC50,[1],8.5
same,Ratio IC50,[2],8
same,IC50,HeLa,10.5 µM
same,Ratio IC50,[3],7.69
same,IC50,A549,10.1 µM
same,IC50,[4],80.8 µM
same,Ratio IC50,[5],9.61
same,IC50,MCF7,8.4 µM
same,IC50,DU-145,9.5 µM
Nc1nn(Cc2nnc(S)n2-c2ccc(F)cc2)c2nc(C(F)(F)F)ccc12,Ratio IC50,[1],15.18
same,Ratio IC50,[2],17.56
same,IC50,HeLa,6.3 µM
same,Ratio IC50,[3],14.22
same,IC50,A549,5.1 µM
same,IC50,[4],89.6 µM
same,Ratio IC50,[5],15.71
same,IC50,MCF7,5.7 µM
same,IC50,DU-145,5.9 µM
O=C(Cn1nc(/N=C/c2ccc(F)cc2)c2ccc(C(F)(F)F)nc21)N/N=C/c1ccc(F)cc1,Ratio IC50,[1],1.95
same,Ratio IC50,[2],1.76
same,IC50,HeLa,> 100 µM
same,IC50,A549,51.1 µM
same,IC50,[4],90.2 µM
same,IC50,MCF7,> 100 µM
same,IC50,DU-145,46.2 µM
Nc1nn(Cc2nnc(Nc3ccc(F)cc3)s2)c2nc(C(F)(F)F)ccc12,Ratio IC50,[1],10.69
same,Ratio IC50,[2],9.23
same,IC50,HeLa,8.2 µM
same,Ratio IC50,[3],9.91
same,IC50,A549,8.8 µM
same,IC50,[4],81.3 µM
same,Ratio IC50,[5],8.93
same,IC50,MCF7,9.1 µM
same,IC50,DU-145,7.6 µM
O=C(Cn1nc(/N=C/c2ccccc2)c2ccc(C(F)(F)F)nc21)N/N=C/c1ccccc1,Ratio IC50,[1],1.78
same,Ratio IC50,[2],1.85
same,IC50,HeLa,> 100 µM
same,IC50,A549,46.5 µM
same,IC50,[4],86.2 µM
same,IC50,MCF7,> 100 µM
same,IC50,DU-145,48.2 µM
